From US20190241962A1, “GENETIC SUSCEPTIBILITY DIAGNOSIS AND TREATMENT OF MENTAL DISORDERS” (priority 2016, published 2019)
Entries after “also recorded” stand apart in the source; their conditions may differ.

What was measured:
FAAH = test: RT-PCR FAAH mRNA level in the cortex; format: in vivo, mice
Procedure: (§1) 100 microliters of 2-propanol was added. […] RNA was stored at −80 deg C.

NAPE-PLD = test: RT-PCR NAPE-PLD mRNA level in the cortex; format: in vivo, mice
Procedure: as §1

[1] = system: endocannabinoid catabolic enzymes (FAAH, MGL, ABHD6); test: RT-PCR mRNA level of endocannabinoid catabolic enzymes in cortex and brainstem; format: in vivo, mice; details: BCP after exposure to phencyclidine, females
Procedure: as §1

IL-6 = test: RT-PCR IL-6 mRNA level in the cortex; format: in vivo, mice
Procedure: as §1

ABHD6 = test: RT-PCR ABHD6 mRNA level in the cortex; format: in vivo, mice
Procedure: as §1

Sabra mice = test: Open-field test, ambulation behavior, PCP mouse model of schizophrenia
GAD67 = test: RT-PCR GAD67 mRNA level in the cortex; format: in vivo, mice
Procedure: as §1

MGL = test: RT-PCR MGL mRNA level in the cortex; format: in vivo, mice
Procedure: as §1

CB1 receptor = test: RT-PCR CB1 receptor mRNA level in the cortex; format: in vivo, mice
Procedure: as §1

CB2 receptor = test: RT-PCR CB2 receptor mRNA level in the cortex; details: PCP vs control group
Procedure: Each brain area was placed in an Eppendorf vessel and covered with RNAlater® solution (Ambion). Eppendorfs were stored overnight at 4° C. and then stored at (−)80° C. for permanent use.
Twenty microliters of 1-bromo-3-chloropropane were added and the Eppendorf was vortexed. After 10 min at room temperature it was centrifuged at 12,000×g for 15 minutes at 4° C. Then the colorless upper aqueous phase was removed to a fresh tube. 100 microliters of 2-propanol was added. Samples were centrifuged again 12,000×g for 10 minutes at 4° C. The supernatant was removed and the RNA pellet was washed with 200 ul cold 75% ethanol. The sample was re-centrifuged at 8000×g for 5 minutes at 4° C. The RNA pellet was dried for 5 minutes by air-drying on ice and 50 ul DEPC water were added to the RNA pellet. RNA was stored at −80 deg C. Genomic DNA strands were then removed by Turbo DNA-free Kit according to manufacturer's recommendation. RNA level was read by Nanodrop® reader. cDNA was prepared according to the manufacturer recommendation using High Capacity cDNA Reverse Transcription Kit (Applied Biosystems).
RT-PCR reaction mix was prepared with Power SYBR® Green PCR Master Mix (Applied Biosystems) according to manufacturer instructions. Mixes were read with Mx300P (Stratagen) and the results of Ct were analysed according to the delta-delta Ct method of analysis.

[2] = BCP after PCP, female mice, cortex
[3] = BCP after PCP, female mice, right and left cortices
[4] = BCP after PCP, male mice, cortex
[5] = PCP vs control group, female mice, left cortex
[6] = PCP vs control group, female mice, right and left cortices
[7] = PCP vs control group, male mice, cortex
[8] = PCP vs control group, female mice, right cortex
[9] = PCP vs control group, male mice, left cortex
[10] = PCP vs control group, male mice, right cortex

C=C1CC/C=C(\C)CC[C@@H]2[C@@H]1CC2(C)C [BCP, beta-caryophyllene]
FAAH mRNA level (FAAH; [2]): did not reverse; also recorded: did not alter gene expression of FAAH
FAAH mRNA level (FAAH; BCP after PCP, male mice): reversed the effect of PCP
NAPE-PLD mRNA level (NAPE-PLD; [3]): did not reverse this effect
NAPE-PLD mRNA level (NAPE-PLD; [4]): did not affect the expression level of NAPE-PLD mRNA
mRNA level of the selected endocannabinoid catabolic enzymes [1]: did not lead to significant changes
IL-6 mRNA level (IL-6; [2]): did not alter gene expression of IL-6
IL-6 mRNA level (IL-6; [4]): reversed the effect of PCP
ABHD6 mRNA level (ABHD6; [2]): did not reverse; also recorded: did not alter gene expression of ABHD6
ambulation behavior (Sabra mice; BCP 10 mg/kg one hour after PCP, Sabra female mice): reversed altered behavior
ambulation behavior (Sabra mice; BCP 10 mg/kg one hour after PCP, Sabra male mice): reversed altered behavior
GAD67 mRNA level (GAD67; [3]): did not reverse this effect
GAD67 mRNA level (GAD67; [4]): did not affect the expression level of GAD67 mRNA
MGL mRNA level (MGL; [2]): did not reverse; also recorded: did not alter gene expression of MGL
CB1 receptor mRNA level (CB1 receptor; [2]): did not alter gene expression of CB1 receptor
CB1 receptor mRNA level (CB1 receptor; [4]): did not alter gene expression of CB1 receptor

c1ccc(C2(N3CCCCC3)CCCCC2)cc1 [PCP, Phencyclidine]
FAAH mRNA level (FAAH; [5]): significantly decreased; also recorded: reduced
NAPE-PLD mRNA level (NAPE-PLD; [6]): reduced
NAPE-PLD mRNA level (NAPE-PLD; [7]): not altered
IL-6 mRNA level (IL-6; [5]): not in the left cortex
IL-6 mRNA level (IL-6; [8]): reduced
IL-6 mRNA level (IL-6; [9]): not in the left cortex
IL-6 mRNA level (IL-6; [10]): elevated
ABHD6 mRNA level (ABHD6; [5]): significantly decreased; also recorded: reduced
ABHD6 mRNA level (ABHD6; [8]): not in the right cortex
ABHD6 mRNA level (ABHD6; [9]): not in males
ambulation behavior (Sabra mice; PCP 5 mg/kg vs control group, Sabra female mice): reduced
ambulation behavior (Sabra mice; PCP 5 mg/kg vs control group, Sabra male mice): elevated
GAD67 mRNA level (GAD67; [6]): reduced
GAD67 mRNA level (GAD67; [7]): not altered
MGL mRNA level (MGL; [5]): significantly decreased; also recorded: reduced
MGL mRNA level (MGL; [9]): not in males
CB2 receptor mRNA level (CB2 receptor; female mice, right cortex): reduced
CB2 receptor mRNA level (CB2 receptor; left cortex): no change
CB1 receptor mRNA level (CB1 receptor; [8]): elevated; also recorded: increased
CB1 receptor mRNA level (CB1 receptor; [10]): elevated
